Assays:
TERA2.cl.SP12 cells = assay: Immunocytochemistry for A2B5, TUJ-1 and cytokeratin 8; type: cell-based, human; conditions: for expression of epithelial phenotype marker cytokeratin 8: 10 μM, 1, 2 and 3 weeks, Fig. 7D; for neuronal differentiation by TUJ-1 staining: up to 3 weeks
Description: Third, we carried out assessment of protein expression using immunofluorescent techniques on cultures of TERA2.cl.SP12 cells treated with retinoids.
TERA2.cl.SP12 cells were seeded at 5000 cells per well on poly-D-lysine (25 μg/ml) coated cover slips in 6-well plates. Cells were treated with each retinoid at a concentration of 10 μM for 7, 14 and 21 days (the media was changed every 3–4 days). Cells were also treated with 1% DMSO for the same time periods as a […] control. At the end of the treatment period, cells were fixed (4% para-formaldehyde in PBS for 30 min at room temperature (RT) and rinsed with PBS. One set of experiments was used for the cell surface marker A2B5 (diluted 1:100, R&D systems), and the other set was prepared for intracellular staining using 1% Triton-X-100 (Sigma Aldrich) in PBS as a permeabilizing agent for 10 min at RT. Non-specific labeling was blocked by incubation with a solution of 1% goat serum (Sigma Aldrich) containing 0.2% Tween-20 (Sigma Aldrich) in PBS for one hour at RT. The primary antibodies β-III tubulin antibody (TUJ-1) (1:200, Affymetrix eBioscience) and CK-8 antibody (1:500, Affymetrix eBioscience) were diluted in blocking solution and incubated with the cells for 1 h at RT. After washing three times for 15 min with PBS, cells were incubated for 1 h in the dark with anti-mouse FITC-conjugated secondary antibody IgM (1:128, Sigma Aldrich) for A2B5 staining, and anti-mouse Alexafluor 488 IgG (1:600, Invitrogen) for TUJ-1 and CK-8 staining. Hoechst 33,342 nuclear staining dye (1:1000, Molecular Probes) was dissolved in blocking solution after the secondary antibody staining step for nuclear staining.
Immunocytofluorescent images of fixed cells were visualized using a Leica SP5 confocal microscope. Scale bars are shown at 25 μm.

[1] = system: SH-SY5Y human neuroblastoma cells; assay: Retinoid-induced gene expression (RARα, RARβ, RARγ, CYP26A1) by real-time PCR; type: cell-based; conditions: for induction of RARα and RARγ expression: 10 μM retinoid, over a 12 h period, Fig. 8A; for induction of RARβ expression, rank order / induction of CYP26A1 expression, rank order: dose-response 1 nM to 1 μM, 8 h treatment, Fig. 8B; for induction of RARβ expression, rank order: all doses; for induction of CYP26A1 expression, rank order: doses <1 μM
Description: As an additional assay of biological activity, short-term changes in expression of four genes in SH-SY5Y cells was employed; a neuroblastoma-derived lineage that undergoes neuronal differentiation in response to retinoid treatment. The four genes assayed, RARα, RARβ, RARγ and CYP26A, have RAREs associated with their promoters and may be directly regulated by retinoids.[51], [52]
(§1) Real time PCR was carried out immediately after treatment on both cell line lysates with 0.25% trypsin–EDTA. TERA-2.cl.SP12 cells were seeded at a density of 1 × 10^6 cells per 25 cm^2 flask, 12–24 h before treatment. […] SH-SY5Y cells were seeded at a density of 1 × 10^6 cells per 25 cm^2 flask, 12–24 h before treatment. […] Commercial RNA extraction kits (Qiagen) and reverse transcription (Applied Biosystems) kits were purchased and procedures used according to the manufacturer instructions. Real time PCR was performed using the TaqMan® Universal PCR Master Mix (Life technologies) and TaqMan® gene expression system (Applied Biosystems) based on probe sets to the specific genes to be analysed. Genecodes used are as follows: RARβ (Hs00233407_m1), CYP26-A1 (Hs00175627_m1), RARα (Hs00940448_g1), RARγ (Hs01559234_m1), PAX-6 (Hs01088112_m1), NeuroD1 (Hs01922995_s1). GADPH (Hs02758991_g1) and ACTB (Hs99999903_m1) were used as internal control genes for TERA-2.cl.SP12 and SH-SY5Y, respectively.

[2] = system: TERA2.cl.SP12 embryonal carcinoma stem cells; assay: Flow cytometry of cell-surface differentiation markers SSEA-3, TRA-1–60, A2B5; type: cell-based, human; conditions: 10 μM retinoid, 7 days, compared to ATRA and control cultures, Fig. 7A
Source text: First, we examined neuronal differentiation in pluripotent TERA2.cl.SP12 human embryonal carcinoma stem cells in response to retinoid treatment. TERA2.cl.SP12 cells have been used in previous studies, [29] to test the ability of synthetic retinoids to induce differentiation along a neuronal or an alternative epithelial pathway at long in vitro timescales of up to three weeks. […] Since the parent carboxylic acid (GZ24) had little activity, the response to GZ22 was a real effect of the ester rather than a result of hydrolysis of the parent ester to the carboxylic acid.
The expression of specific cell surface protein markers (SSEA-3, TRA-1–60, A2B5) on TERA2.cl.SP12 was analyzed using flow cytometry as described previously.[53] Briefly, TERA2.cl.SP12 cells, 2 × 10^5 per 25 cm^2 flask, were seeded 12–24 h before treatment with 10 μM retinoid for 7 days. The primary antibodies used were SSEA-3 (diluted 1:10, University of Iowa Hybridoma Bank), TRA-1–60 (diluted 1:50, Abcam) and neural cell marker A2B5 (diluted 1:40, R&D Systems). Labeled cells were analyzed in a Guave EasyCyte Plus System (Millipore) flow cytometer and thresholds determining the numbers of positively expressing cells were set against the negative control antibody, P3X.

TERA2.cl.SP12 stem cells = assay: Real-time PCR for neuronal markers NeuroD1 and PAX6; type: cell-based, human; conditions: 10 μM, Fig. 7B; for induction of PAX6 expression, rank order: up to 7 days
Description: Second, NeuroD1 and PAX6 are retinoid-induced transcription factors involved in regulating neuronal differentiation,[49], [50] and are expressed in neurons derived from TERA2.cl.SP12 stem cells.
as §1

RARβ = conditions: RARβ2 isoform; cited from earlier work

Cc1sc(-c2ccc(C(=O)O)cc2)nc1-c1ccc2c(c1)C(C)(C)CCC2(C)C [GZ25]
expression of epithelial phenotype marker cytokeratin 8 (TERA2.cl.SP12 cells): not detectable | expression of neuronal differentiation marker A2B5 (immunofluorescence) (TERA2.cl.SP12 cells; 10 μM, after 7 days, Fig. 7C): induced | neuronal differentiation by TUJ-1 staining (TERA2.cl.SP12 cells; 10 μM, Fig. 7C): most effective | induction of RARα and RARγ expression [1]: lower levels of induction | induction of RARβ expression, rank order [1]: GZ25 ≫ ATRA > GZ18 | induction of CYP26A1 expression, rank order [1]: GZ25 > GZ18 > ATRA | proportion of cells expressing differentiation markers SSEA-3, TRA-1–60, A2B5 [2]: most potent, even compared to ATRA | NeuroD1 mRNA expression, rank order (TERA2.cl.SP12 stem cells; after 5 days): GZ25 > GZ18 > ATRA | NeuroD1 mRNA expression, rank order (TERA2.cl.SP12 stem cells; after 7 days): ATRA > GZ25 | induction of PAX6 expression, rank order (TERA2.cl.SP12 stem cells): GZ25 ≫ ATRA > GZ18

CCOC(=O)c1ccc(-c2nc(-c3ccccc3)c(C)s2)cc1 [GZ22]
expression of epithelial phenotype marker cytokeratin 8 (TERA2.cl.SP12 cells): more effective | neuronal differentiation by TUJ-1 staining (TERA2.cl.SP12 cells; 10 μM, Fig. 7C): very low activity | proportion of cells expressing differentiation markers SSEA-3, TRA-1–60, A2B5 [2]: Intermediate responses

CCOCCOc1nc(-c2ccc(C(=O)O)cc2)sc1C [GZ18]
RAR-type selectivity (RARβ): RARβ2-specific retinoid | expression of epithelial phenotype marker cytokeratin 8 (TERA2.cl.SP12 cells): more effective | neuronal differentiation by TUJ-1 staining (TERA2.cl.SP12 cells; 10 μM, Fig. 7C): very low activity | time-course of RARβ and CYP26A1 induction ([1]; 10 μM retinoid treatment): less active in comparison to either GZ25 or ATRA | induction of RARα and RARγ expression [1]: lower levels of induction | induction of RARβ expression, rank order [1]: GZ25 ≫ ATRA > GZ18 | induction of CYP26A1 expression, rank order [1]: GZ25 > GZ18 > ATRA | proportion of cells expressing differentiation markers SSEA-3, TRA-1–60, A2B5 [2]: very little activity | NeuroD1 mRNA expression, rank order (TERA2.cl.SP12 stem cells; after 5 days): GZ25 > GZ18 > ATRA | induction of PAX6 expression, rank order (TERA2.cl.SP12 stem cells): GZ25 ≫ ATRA > GZ18

Reference: article PMC5933457, “Probing biological activity through structural modelling of ligand-receptor interactions of 2,4-disubstituted thiazole retinoids” (Bioorganic & Medicinal Chemistry, 2018)
